Reference: patent US7563813B2, “Iminothiazolidinone derivatives as SFRP-1 antagonists” (Wyeth, priority 2005, dated 2009)

Molecular target: T1, hSFRP-1 (Homo sapiens, UniProt Q8N474)
T1 construct: expressed in transfected cells; host or cells: U2OS osteosarcoma cells (ATCC, HTB 96), transient co-transfection with Wnt 3, Wnt3A or Wnt 1, 16x TCF-tk-Luciferase reporter and CMV-beta-gal
T1 sequence (Q8N474 32-314): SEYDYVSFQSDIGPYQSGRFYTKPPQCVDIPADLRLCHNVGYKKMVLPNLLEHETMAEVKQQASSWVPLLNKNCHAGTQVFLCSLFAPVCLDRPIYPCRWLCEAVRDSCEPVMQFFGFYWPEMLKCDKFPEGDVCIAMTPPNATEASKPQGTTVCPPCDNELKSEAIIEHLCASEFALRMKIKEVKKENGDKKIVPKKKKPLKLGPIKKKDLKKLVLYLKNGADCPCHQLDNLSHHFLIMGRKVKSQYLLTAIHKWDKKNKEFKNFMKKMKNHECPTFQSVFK
Test: Cell-Based Assay for In Vitro Measurement of SFRP-1/SARP2 Antagonist Activity (U2OS cells, 16x TCF-tk-Luciferase reporter, Wnt + hSFRP-1 co-transfection)
Conditions: initial single dose screening at 10 μM; for Ratio: ratio not defined
Experimental: Cell-Based Assay for In Vitro Measurement of SFRP-1/SARP2 Antagonist Activity
The following cell-based assay can be used to identify inhibitors of SFRP-1.
The osteosarcoma cell line, U2OS (ATCC, HTB 96), was passaged twice a week with growth medium (McCoy's SA medium containing 10% (v/v) fetal calf serum, 2 mM GlutaMAX-1, and 1% (v/v) Penicillin-Streptomycin). The cells were maintained in vented flasks at 37° C. inside a 5% CO2/95% humidified air incubator. One day prior to transfection, the cells were plated with growth medium at 25,000 cells/well into 96-well plates and incubated at 37° C. overnight.
The growth medium was removed, and the cells were washed once with OPTIMEM I (Gibco-BRL) medium (100 μl/well) to remove the serum and antibiotics. The wash medium was removed, and the cells were re-fed with OPTI-MEM I medium (100 μl/well). For each well of cells to be transfected, the following DNA's were diluted together in 25 μl OPTI-MEM I medium: 0.1 μg 16× TCF-tk-Luciferase reporter, 0.02 μg Wnt 3, Wnt3A, Wnt 1 or empty vector (Upstate Biotechnology), 0.075 μg hSFRP-1 or empty vector (pcDNA3.1, Invitrogen), and 0.025 μg CMV-®gal (Clonetech). For each well of cells to be transfected, 1 μl of Lipofectamine 2000 reagent (Invitrogen) was diluted in 25 μl OPTI-MEM I medium and incubated at room temperature for 5 minutes. The diluted DNA's were then combined with the diluted Lipofectamine 2000 (LF2000), and the mixture was incubated at room temperature for 20 minutes. Fifty μl of the DNA-LF 2000 mixture was added to each well, and the plate(s) were incubated at 37° C. in a 5% CO2/95% humidified air incubator for 4 hours. The cells were washed once with 150 μl/well of experimental medium (phenol red-free RPMI Medium 1640 containing 2% fetal bovine serum, 2 mM GlutaMAX-1, and 1% Penicillin-Streptomycin). Finally, the cells were treated overnight at 37° C. with 200 μl/well of experimental medium containing either vehicle (typically DMSO) or diluted compound in replicates of 8 wells/compound.
Initial single dose screening of test compounds was done at 10 μM.
Dose-response experiments were initially performed with the compounds in log increases from 1-10,000 nM. From these dose-response curves, EC50 values were generated.
After treatment, the cells were washed twice with 150 μl/well of PBS without calcium or magnesium and were lysed with 50 μl/well of 1× cell culture lysis reagent (Promega Corporation) on a shaker at room temperature for 30 minutes. Thirty μl aliquots of the cell lysates were transferred to 96-well luminometer plates, and luciferase activity was measured in a MicroLumat PLUS luminometer (EG&G Berthold), or a Victor (PerkinElmer Life Sciences) using […] of luciferase substrate (Promega Corporation). Following the injection of substrate, luciferase activity was measured for 10 seconds after a 1.6 second delay. Similarly, 10 μl aliquots of the cell lysates were transferred to separate 96-well luminometer plates, and 50 μl of Galacton chemiluminescent substrate (Tropix) was added to each well. The plates were covered and incubated on a rotary shaker at room temperature for one hour. ®gal activity was measured in a MicroLumat PLUS luminometer or Victor using 100 μl/well of Light Emission Accelerator (Tropix). Following the injection of the accelerator, ®gal activity was measured for 10 seconds after a 1.6 second delay. The luciferase and ®gal activity data were transferred from the luminometer to a PC and analyzed using the SAS/Excel program. After the luciferase activity was normalized to ®gal, the SAS/Excel program was used to determine the mean and standard deviation of each treatment, to analyze the data for statistical significance, and to determine EC50 values.
As an alternative to co-transfection in a 96 well plate, the U2OS cells were transfected in T225 flasks and the transfected cells were frozen. The frozen cells were thawed and plated on a 96 well plate and the assay was carried out as detailed above. […]

[1] = luciferase reporter activity, fold induction over SFRP-1 control

Row | SMILES | fold induction at 10 µM [1] | Ratio | Fold induction with SFRP-1 [1] [fold]
1 | N=C1NC(=O)C(CC(=O)Nc2ccccc2)S1 (stereo not shown) [Example 17, 2-(2-imino-4-oxo-1,3-thiazolidin-5-yl)-N-phenylacetamide] | 1.3 | 1.0 | –
2 | N=C1NC(=O)C(CC(=O)NCc2ccccc2)S1 (stereo not shown) [Example 18, N-benzyl-2-(2-imino-4-oxo-1,3-thiazolidin-5-yl)acetamide] | 1.2 | 1.1 | –
3 | N=C1NC(=O)C(CC(=O)NCc2cccc(C(F)(F)F)c2)S1 (stereo not shown) [Example 19, 2-(2-imino-4-oxo-1,3-thiazolidin-5-yl)-N-[3-(trifluoromethyl)benzyl]acetamide] | 1.1 | 0.9 | –
4 | N=C1NC(=O)C(CC(=O)NCc2ccccc2C(F)(F)F)S1 (stereo not shown) [Example 20, 2-(2-imino-4-oxo-1,3-thiazolidin-5-yl)-N-[2-(trifluoromethyl)benzyl]acetamide] | 1.2 | 1.1 | –
5 | N=C1NC(=O)C(CC(=O)NCc2ccc(Cl)cc2)S1 (stereo not shown) [Example 21, N-(4-chlorobenzyl)-2-(2-imino-4-oxo-1,3-thiazolidin-5-yl)acetamide] | 1.2 | 1.0 | –
6 | N=C1NC(=O)C(CC(=O)NCc2cccc(Cl)c2)S1 (stereo not shown) [Example 22, N-(3-chlorobenzyl)-2-(2-imino-4-oxo-1,3-thiazolidin-5-yl)acetamide] | 1.2 | 1.0 | –
7 | N=C1NC(=O)C(CC(=O)NCc2ccccc2Cl)S1 (stereo not shown) [Example 23, N-(2-chlorobenzyl)-2-(2-imino-4-oxo-1,3-thiazolidin-5-yl)acetamide] | 1.2 | 1.0 | –
8 | N=C1NC(=O)C(CC(=O)Nc2cccc(C(N)=O)c2)S1 (stereo not shown) [Example 24, 3-{[(2-imino-4-oxo-1,3-thiazolidin-5-yl)acetyl]amino}benzamide] | 1.2 | 1.0 | –
9 | CCOC(=O)c1cccc(NC(=O)CC2SC(=N)NC2=O)c1 (stereo not shown) [Example 25, ethyl 3-{[(2-imino-4-oxo-1,3-thiazolidin-5-yl)acetyl]amino}benzoate] | 1.7 | 1.4 | –
10 | N=C1NC(=O)C(CC(=O)Nc2cccc(Oc3ccccc3)c2)S1 (stereo not shown) [Example 26, 2-(2-imino-4-oxo-1,3-thiazolidin-5-yl)-N-(3-phenoxyphenyl)acetamide] | 1.5 | 1.4 | –
11 | N=C1NC(=O)C(CC(=O)Nc2cccc(C(=O)c3ccccc3)c2)S1 (stereo not shown) [Example 27, N-(3-benzoylphenyl)-2-(2-imino-4-oxo-1,3-thiazolidin-5-yl)acetamide] | 1.8 | 1.5 | –
12 | N=C1NC(=O)C(CC(=O)Nc2cccc(Cl)c2Cl)S1 (stereo not shown) [Example 28, N-(2,3-dichlorophenyl)-2-(2-imino-4-oxo-1,3-thiazolidin-5-yl)acetamide] | 1.2 | 1.0 | –
13 | N=C1NC(=O)C(CC(=O)Nc2cccc([N+](=O)[O-])c2)S1 (stereo not shown) [Example 29, 2-(2-imino-4-oxo-1,3-thiazolidin-5-yl)-N-(3-nitrophenyl)acetamide] | 1.7 | 1.4 | –
14 | CC(=O)c1cccc(NC(=O)CC2SC(=N)NC2=O)c1 (stereo not shown) [Example 30, N-(3-acetylphenyl)-2-(2-imino-4-oxo-1,3-thiazolidin-5-yl)acetamide] | 1.2 | 1.1 | –
15 | N=C1NC(=O)C(CC(=O)Nc2cccc(OC(F)(F)F)c2)S1 (stereo not shown) [Example 31, 2-(2-imino-4-oxo-1,3-thiazolidin-5-yl)-N-[3-(trifluoromethoxy)phenyl]acetamide] | 1.7 | 1.5 | –
16 | N=C1NC(=O)C(CC(=O)Nc2sc3c(c2C(N)=O)CCCC3)S1 (stereo not shown) [Example 32, 2-{[(2-imino-4-oxo-1,3-thiazolidin-5-yl)acetyl]amino}-4,5,6,7-tetrahydro-1-benzothiophene-3-carboxamide] | 1 | 1.1 | –
17 | CCOC(=O)c1cc(CC)sc1NC(=O)CC1SC(=N)NC1=O (stereo not shown) [Example 33, ethyl 5-ethyl-2-{[(2-imino-4-oxo-1,3-thiazolidin-5-yl)acetyl]amino}thiophene-3-carboxylate] | 1.5 | 1.7 | –
18 | COC(=O)c1ccsc1NC(=O)CC1SC(=N)NC1=O (stereo not shown) [Example 34, methyl 2-{[(2-imino-4-oxo-1,3-thiazolidin-5-yl)acetyl]amino}thiophene-3-carboxylate] | 1.2 | 1.3 | –
19 | CCOC(=O)c1c(NC(=O)CC2SC(=N)NC2=O)sc2c1CCCC2 (stereo not shown) [Example 35, ethyl 2-{[(2-imino-4-oxo-1,3-thiazolidin-5-yl)acetyl]amino}-4,5,6,7-tetrahydro-1-benzothiophene-3-carboxylate] | 1.4 | 1.6 | –
20 | CCOC(=O)c1c(NC(=O)CC2SC(=N)NC2=O)sc2c1CCCCC2 (stereo not shown) [Example 36, ethyl 2-{[(2-imino-4-oxo-1,3-thiazolidin-5-yl)acetyl]amino}-5,6,7,8-tetrahydro-4H-cyclohepta[b]thiophene-3-carboxylate] | 1.5 | 1.9 | –
21 | COC(=O)c1c(NC(=O)CC2SC(=N)NC2=O)sc2c1CCC(OC)C2 (stereo not shown) [Example 37, methyl 2-{[(2-imino-4-oxo-1,3-thiazolidin-5-yl)acetyl]amino}-6-methoxy-4,5,6,7-tetrahydro-1-benzothiophene-3-carboxylate] | 1.5 | 1.7 | –
22 | COC(=O)c1c(NC(=O)CC2SC(=N)NC2=O)sc2c1CCCC2 (stereo not shown) [Example 38, methyl 2-{[(2-imino-4-oxo-1,3-thiazolidin-5-yl)acetyl]amino}-4,5,6,7-tetrahydro-1-benzothiophene-3-carboxylate] | 1.3 | 1.4 | –
23 | COC(=O)c1sc(C(C)(C)C)cc1NC(=O)CC1SC(=N)NC1=O (stereo not shown) [Example 42, methyl 5-tert-butyl-3-{[(2-imino-4-oxo-1,3-thiazolidin-5-yl)acetyl]amino}thiophene-2-carboxylate] | 1.5 | 1.7 | –
24 | COC(=O)c1scc(C)c1NC(=O)CC1SC(=N)NC1=O (stereo not shown) [Example 43, methyl 3-{[(2-imino-4-oxo-1,3-thiazolidin-5-yl)acetyl]amino}-4-methylthiophene-2-carboxylate] | 1 | 1.0 | –
25 | CCOC(=O)c1c(NC(=O)CC2SC(=N)NC2=O)sc2c1CCC2 (stereo not shown) [Example 44, ethyl 2-{[(2-imino-4-oxo-1,3-thiazolidin-5-yl)acetyl]amino}-5,6-dihydro-4H-cyclopenta[b]thiophene-3-carboxylate] | 1.6 | 1.5 | –
26 | CCOC(=O)c1c(-c2ccccc2)csc1NC(=O)CC1SC(=N)NC1=O (stereo not shown) [Example 45, ethyl 2-{[(2-imino-4-oxo-1,3-thiazolidin-5-yl)acetyl]amino}-4-phenyIthiophene-3-carboxylate] | – | 1.0 | 1.1
